According to patent US8242152B2, “Use of 4-[(4-thiazolyl)phenoxy]alkoxy-benzamidine derivatives for the prophylaxis and treatment of osteoporosis” (Dong Wha Pharmaceutical Co., Ltd., priority 2001, dated 2012):
pIC50: −log10 of the molar value.

Experiments:
osteoclast fusion [1] = assay: Fusion assay of prefusion osteoclasts (Example 2); assay type: cell-based, mice; settings: 24 hrs; for inhibition at 0.08 µM / inhibition at 0.4 µM / inhibition at 2 µM / inhibition at 10 µM: read-out: Inhibitory action (%)
Description: This assay is designed to evaluate the influences of each test substance in terms of osteoclast fusion during the differentiation process in which immature prefusion osteoclasts (pOC; osteoclast structure with one more nuclei) were transformed into mature multinucleated osteoclast (OCL) via cell to cell fusion (Gregg Wesolowski et al. Experimental Cell Research 219,679-686, 1995).
The prefusion osteoclast can be obtained via co-culture of both bone marrow cells and osteoblast, as prepared from Example 1. The mixture of both osteoblast (about 5×10^5 cells/plate) and bone marrow cells (about 1×10^7 cells/plate) were co-cultured in a 100 mm culture dish. Some differentiation factors, such as dexamethasone (10^−6M) and vitamin D3 (10^−9M), were added to the medium from the first day of culture. The medium was changed with a fresh medium containing differentiation factors every 2 days.
Since a great number of the prefusion osteoclasts having one or more nuclei in fusion process were formed during 4-day co-culture, the cells were separated and co-cultivation after 4 days. The medium was removed from the cells and with the addition of 0.2% collagenase solution (4 mL), the cells were incubated at 37° C. for 20 mins to separate the attachment cells. Since the majority of separated cells were osteoblasts, all osteoblasts were washed with PBS solution two or three times for their complete removal.
After the remaining prefusion osteoclasts were separated via reaction for 20 mins with the addition of echistatin containing 10% BSA, the cells were harvested by centrifuge.
The test substances diluted at each concentration were diluted at the desired concentration in α-MEM medium (addition of 10% FBS) to load them into a 96-well microplate in a dose of 100 uL per well. The osteoclastic monocytes, so separated from the preceding No. 1, were plated on a 96-well microplate in a dose of 5×10^3 cell/100 uL per well and cultured at 37° C. for 24 hrs, thus successfully resulting in the osteoclast fusion. In the case of specimen-free and positive controls, experiments were performed in the same manner as above.
The medium was removed from the cells and then the cells were washed once with PBS and fixed to a PBS solution containing 10% formalin for about 5 mins. The cells were again fixed to both ethanol and acetone (1/1) in a mixing solution for about 5 mins and dried off. The cells were further treated by TRAP staining solution for 15 mins and washed with water to observe the cells under the microscope. The TRAP-positive osteoclast counts, which were differentiated from monocyte to multinucleated cells (osteoclast having more than 10 nuclei) via fusion process, were measured.

[2] = system: osteoclast differentiation; assay: Osteoclast differentiation, co-culture, TRAP(+)MNCs (Example 5); assay type: cell-based, mice; settings: for % inhibitory action / inhibition at 0.01 µM / inhibition at 0.1 µM / inhibition at 1 µM: day 6; for inhibition at 0.01 µM / inhibition at 0.1 µM / inhibition at 1 µM: Mus musculus, Osteoclast, 144 h, read-out: % inhibitory action
Description: To investigate the effect of compounds on osteoclast differentiation, co-culture between bone marrow cells (2.5×10^5 cells/cm^2) and calvaria-derived osteoblastic cells (4×10^4 cells/cm^2) was conducted in the presence of 1.25(OH)2D3(10^−8 M) and dexamethasone (10^−7 M) with α-MEM containing 10% FBS (referred as “osteoclastic medium”). Bone marrow cells were isolated from the femora of 6-week-old ddY mice and primary osteoblastic cells were isolated from the calvariae of newborn ICR mice by sequential digestion with 0.2% collagenase. The medium was changed every two days with fresh osteoclastic medium. An index of osteoclast formation was determined by counting TRAP-positive multinucleated osteoclasts (TRAP(+)MNCs). On day 6, the cells were fixed with 10% formaldehyde and stained for TRAP. The number of TRAP(+) MNCs containing more than 6-7 nuclei was counted under a microscope (ZEISS Axiovert 25, Switzerland). The results are shown as the relative inhibitory activity (% inhibition) compared to the control group.

osteoclast fusion [3] = assay: Osteoclast fusion assay with purified prefusion osteoclasts (Example 5); assay type: cell-based, mice; settings: for inhibition at 0.08 µM / inhibition at 0.4 µM / inhibition at 2 µM / inhibition at 10 µM: read-out: Inhibitory action (%)
Description: The effect of the compounds on the fusion of osteoclasts was examined using purified prefusion osteoclasts (pOC, mononuclear and binuclear osteoclasts). Co-cultures of bone marrow cells (2×10^7 cells/dish) and newborn mice calvariae (1×10^6 cells/dish) were maintained in 100-mm-diameter dishes for 4 days with osteoclast differontiarion factor. Cultures were washed twice with PBS and treated with 0.1% collagenase/dispase at 37° C. for 20 minutes. Released cells, mostly osteoblasts, were removed with a pipet and the plates were washed three times with PBS. The remaining cells were incubated with 30 uM echistatin in α-MEM containing 1% BSA for 20 min at 37° C. These cells were collected, pelleted, and washed once with α-MEM containing 10% FBS. The cells released by this treatment were the subject of the fusion assay. More than 90% of the cells in the pOCs preparation used in the present study were positive for TRAP.
pOCs (15,000 cells/well) were plated on 96 well culture plates with or without various compounds. After culture for 18 hours, the cells were fixed and stained for TRAP.

[4] = system: osteoclast activity (resorption pits); assay: Bone resorption pit formation assay on dentine slice (Example 5); assay type: cell-based, mice; settings: for Inhibitory activity (%) / inhibition at 0.01 µM / inhibition at 0.1 µM / inhibition at 1 µM: dentine slice, 24 h; for inhibition at 0.01 µM / inhibition at 0.1 µM / inhibition at 1 µM: Mus musculus, Osteoclast, read-out: Inhibitory activity (%)
Description: Method for evaluating the effects of the compounds on osteoclast activity: Multinucleated osteoclasts were developed on collagen gel plates by co-culture system as described. On day 6-8 of the co-culture, multinucleated OCLs were detached from plates by 0.2% collagenase treatment (“crude OCLs”). Crude OCLs suspended in α-MEM containing 10% FBS were placed on a dentine slice (4 mm diameter) in a 96-well culture plate. […] At the end of the incubation, cells were removed by 1 M NH4OH treatment and resorption pits formed (in the slices stained with Mayer's hematoxylin). Resorption pits were enumerated with an image analyzer and compared to the control group.

[5] = system: Primary osteoblastic cells; assay: ALP activity in primary osteoblastic cells (Example 5); assay type: cell-based, ICR mice; settings: for ALP activity (% of control) / ALP activity (Unit): 3 days
Description: Primary osteoblastic cells isolated from the calvariae of newborn ICR mice were grown to confluence in α-MEM containing 10% FBS. These cells were plated at a density of 1×10^5/ml in tissue culture dishes. After 24 h, cells were changed with a differentiation medium containing ascorbic acid (50 ug/ml) and β-glycerophosphate (10 mM) with or without the compounds and further cultured for 3 days. Cells were washed twice with PBS and harvested. For the measurement of ALP activity and total protein content, cells were extracted into 0.1% Triton X-100 in PBS containing 1 mM MgCl2 and centrifuged at 1.000×g for 5 minutes. Enzyme activity was determined in supernatants by colorimetric procedure using p-nitrophenyl phosphate (PNP) as a substrate at a wavelength of 405 nm and the protein content was determined by a Bio-Rad protein assay kit. The ALP unit was expressed as nmol PNP/ug protein/min.

[6] = Mus musculus, Osteoclast, 0.08 uM
[7] = Mus musculus, Osteoclast, 0.4 uM
[8] = Mus musculus, Osteoclast, 10 uM
[9] = Mus musculus, Osteoclast, 0.08 uM, 18 hours
[10] = Mus musculus, Osteoclast, 0.4 uM, 18 hours
[11] = Mus musculus, Osteoclast, 2 uM, 18 hours
[12] = Mus musculus, Osteoclast, 10 uM, 18 hours

Compound | ALP activity (% of control) ([5]; 0.01 uM) | ALP activity (Unit) ([5]; 0.01 uM) | ALP activity (% of control) ([5]; 0.1 uM) | ALP activity (Unit) ([5]; 0.1 uM) | inhibition at 0.08 µM (osteoclast fusion [1]; [6]) | inhibition at 0.4 µM (osteoclast fusion [1]; [7]) | inhibition at 2 µM (osteoclast fusion [1]; Mus musculus, Osteoclast, 2 uM) | inhibition at 10 µM (osteoclast fusion [1]; [8]) | inhibition at 0.01 µM ([2]; 0.01 uM) | inhibition at 0.1 µM ([2]; 0.1 uM) | inhibition at 1 µM ([2]; 1 uM) | inhibition at 0.08 µM (osteoclast fusion [3]; [9]) | inhibition at 0.4 µM (osteoclast fusion [3]; [10]) | inhibition at 2 µM (osteoclast fusion [3]; [11]) | inhibition at 10 µM (osteoclast fusion [3]; [12]) | inhibition at 0.01 µM ([4]; 0.01 uM) | inhibition at 0.1 µM ([4]; 0.1 uM) | inhibition at 1 µM ([4]; 1 uM) | other results
4-[5-[4-(aminoiminomethyl)phenoxy]pentoxy]-3-methoxy-N,N-bis(1-methylethyl)benzamide maleic acid [CGS-25019C] | 121.3 % of control | 20.6 nmol PNP/ug protein/min | 115.3 % of control | 19.7 nmol PNP/ug protein/min |  |  |  |  |  |  |  |  |  |  |  |  |  |  | Inhibitory action (%) (osteoclast fusion [1]; 0.08 uM): 10.14%; Inhibitory action (%) (osteoclast fusion [1]; 0.4 uM): 13.04%; Inhibitory action (%) (osteoclast fusion [1]; 2 uM): 13.77%; Inhibitory action (%) (osteoclast fusion [1]; 10 uM): 12.32%; % inhibitory action ([2]; 0.01 uM): 11.2%; % inhibitory action ([2]; 0.1 uM): 29.5%; % inhibitory action ([2]; 1 uM): 36.9%; Inhibitory action (%) (osteoclast fusion [3]; 0.08 uM, 18 hours): 10.14%; Inhibitory action (%) (osteoclast fusion [3]; 0.4 uM, 18 hours): 13.04%; Inhibitory action (%) (osteoclast fusion [3]; 2 uM, 18 hours): 13.77%; Inhibitory action (%) (osteoclast fusion [3]; 10 uM, 18 hours): 12.32%; Inhibitory activity (%) ([4]; 0.01 uM): 0(−24) %; Inhibitory activity (%) ([4]; 0.1 uM): 10.4%; Inhibitory activity (%) ([4]; 1 uM): 24.8%
Cc1nc(-c2ccc(OCCCCOc3ccc(C(=N)NO)cc3)cc2)c(C(C)C)s1 [DW1349, N— hydroxy-4-{4-[4-(5-isopropyl-2-methyl-1,3-thiazol-4-yl)phenoxy]butoxy}-benzamidine] | 113.2 % of control | 19.0 nmol PNP/ug protein/min | 101.6 % of control | 17.2 nmol PNP/ug protein/min | 0% | 2.3% | 4.5% | 18% | 31.9% | 46.8% | 85.5% | 0% | 2.3% | 4.5% | 18% | 19.3% | 36.1% | 64.7% | 
Cc1nc(-c2ccc(OCCCCCOc3ccc(C(=N)NO)cc3)cc2)c(C(C)C)s1 [DW1350, N-hydroxy-4-{5-[4-(5-isopropyl-2-methyl-1,3-thiazol-4-yl)phenoxy]pentoxy}-benzamidine] | 141.9 % of control | 24.4 nmol PNP/ug protein/min | 153.7 % of control | 26.7 nmol PNP/ug protein/min | 4.5% | 25.6% | 80% | 98% | 38.5% | 62.7% | 88.7% | 4.5% | 25.6% | 80% | 98% | 45.2% | 52.6% | 72.6% | pIC50 (osteoclast fusion [1]; Mus musculus, Osteoclast): 6.09; times more inhibition of osteoclast differentiation than DW1349 ([2]; versus DW1349, Table 8): 1.34 times; times stronger inhibition of osteoclast differentiation than DW1351 ([2]; versus DW1351, Table 8): about two times better; times stronger inhibition of osteoclast fusion than DW1349 (osteoclast fusion [3]; 2 uM, versus DW1349): 17.8 times; pIC50 (osteoclast fusion [3]; Mus musculus, Osteoclast, 18 hours): 6.09; times more inhibition of osteoclast fusion than DW1351 (osteoclast fusion [3]; versus DW1351): two fold better inhibitor; times better than DW1349 in inhibiting osteoclast activity ([4]; versus DW1349, Table 10): about 1.45 times; times more inhibition of osteoclast activity than DW1351 ([4]; versus DW1351, Table 10): two-fold better inhibitor; times better stimulator of osteoblast activity (ALP) than DW1349 ([5]; versus DW1349): 1.25 times; times greater stimulation of osteoblast activity (ALP) than DW1351 and DW1352 ([5]; versus DW1351 and DW1352): 1.15˜1.25 times
Cc1nc(-c2ccc(OCCCCOc3ccc(C(=N)N)cc3)cc2)c(C(C)C)s1 [DW1351, 4-{4-[4-(5-isopropyl-2-methyl-1,3-thiazol-4-yl)phenoxy]butoxy}-benzamidine] | 122.5 % of control | 20.8 nmol PNP/ug protein/min | 121.2 % of control | 21.0 nmol PNP/ug protein/min | 0% | 0% | 38% | 74% | 23% | 30.6% | 61.5% | 0% | 0% | 38% | 74% | 2.1% | 26.7% | 51.8% | 
